From article PMC9838834, “Improvement of Antialveolar echinococcosis efficacy of novel Albendazole-Bile acids Derivatives with Enhanced Oral Bioavailability” (PLOS Neglected Tropical Diseases, 2023)

Experiments:
[1] = Stability in rat plasma (UHPLC-MS method validation, S4 Table); format: in vitro ADME
Experimental: A Dionex Ultimate 3000 RSLC system (Thermofisher) combined with an Accucore aQ C18 column (150 mm×2.1 mm, 2.6 μm, Thermo fisher) was used in the sample separation process. The separation speed was set at […] for all gradients. 1 μL of injection volume and a constant temperature of (25 ± 1°C were set for the column. The eluents were A, water with 0.1% formic acid (v/v) and B, methanol; the gradient program was as follows: 0–6 min, 8–40% B; 6–8 min, 40–100% B; 8–10 min, 100% B; 10–11 min, 100–8% B; 11–13 min, 8% B.
Heated electro-spray ionization (HE-SI) was paired with a Q-Orbitrap MS in the MS analysis. The flow rate of auxiliary, sheath and sweep gas was set at 35, 10, and 1 (arbitrary unit), respectively. A full MS-ddMS^2 mode was used to perform the analysis. The damping gas in the C-trap and nitrogen was used to stabilize the spraying. Temperatures of 350°C and 320°C were set and kept for the auxiliary gas heater and capillary. Under negative mode, 3.0 kV was adopted for the spray voltage, 60 V was used for the S-lens RF level, 50 ms was used for the maximum injection time, and 3.0 ^e6 was set as the automatic gain control target. Full MS-ddMS^2 scan ranged from 150.0000 to 800.0000 m/z. Precise molecular weight […] was used for qualitative analysis, the corresponding peak area was used for quantitative analysis, and MS^2 fragments were used for further qualitative analysis.
Plasma samples were thawed at room temperature, and 100 μL was added to an equal volume of mass spectrometry grade methanol, vortexed for 1 min, and centrifuged again at 13000 rpm for 5 min. 100 μL of the supernatant were added to 100 μL of 200 ng/mL mebendazole IS solution, vortexed for 1 min, and centrifuged again at 13000 rpm for 5 min. The resulting sample was injected by UHPLC-HR-ESI-MS with an injection volume of 1 μL. The pharmacokinetic study of SD rats was performed according to the standards recommended by the "Guidelines for the Care and Use of Laboratory Animals" (Animal Laboratory Resources Institute, 1995) and was approved by the Institutional Animal Care and Use Committee of Qinghai University.
Supplementary file pntd.0011031.s004.xlsx: S4 Table The stability for the determination of total alkaloid in rat plasma. (XLSX) Click here for additional data file.

[2] = background statement; cited from earlier work
alveolar echinococcosis = system: alveolar echinococcosis; set-up: method as in PMID 18938096; settings: AE patients; cited from earlier work
[3] = system: secondary hepatic alveolar echinococcosis (E. multilocularis); assay: In vivo therapeutic efficacy in an in-situ AE animal model (lesion volume); settings: AE model rats
Experimental: Six-week-old […] weighing 200-250g were purchased from a market (Weitong Lihua Laboratory Animal Technology Co., Ltd, Beijing, China). The rats were injected with protoscolex (PSC) suspension (1000–2000) PSCs/mL×0.1 mL/each using the open-abdominal direct liver puncture method. The modeling quality was confirmed by Mindray’s Resona7 color Doppler ultrasound system. The lesion volume was calculated by the length (X) and width (Y) of its ultrasound transverse section and the width (Z) of its longitudinal section, X·Y·Z. Rats with relatively uniform lesion volumes were selected as model animals for further experiments (Fig 1). All animal-related experiments were approved by the Animal Care and Utilization Committee (IACUC) of Qinghai University. The animals were housed in a room with controlled temperature (25 ± 2°C) with light-cycled (12 h light/dark cycle). Food and water were provided ad libitum.
At the 16th week after establishing an experimental secondary AE in rats, we divided the model rats into three groups. The first is the control group, with six infected rats were received with CMC-Na of 0.9% saline. In the second group, rats were received with 0.2 mL of Albenda suspension. In the third group, rats were received with 0.2 mL of ABZ-BA suspension. The three groups were administered by gavage with the dosage of 25 mg/kg/d, which was calculated according to the equivalent dose convert ratio between humans and animals based on the surface body area of humans. After a 30-day, once-daily oral administration, the liver tissue lesions were obtained and weighed to evaluate the cyst inhibition rate after one month of administration.

Hep-G2 cell line = assay: Cytotoxicity in Hep-G2 cell line; format: cell-based, human; settings: ABZ-BA with different carbon chain lengths (C1, C4 linker), data not shown
Source text: Since this part of data will be published in other manuscripts, it is not shown in this manuscript.

[4] = Determination of equilibrium solubility (HPLC); format: physicochemical; settings: 48 h, pH 7.4
Experimental: An excess amount of ABZ-BA and ABZ were equilibrated in sodium phosphate buffer, pH 7.4, at 37°C for 48 h. The supernatant was separated from excess solid in solution by ultracentrifugation at 40000 rpm. Subsequently, the supernatant was diluted, and the solution concentration was determined using high-performance liquid chromatography (HPLC) (Shimadzu LC- 20AT, Kyoto, Japan). The chromatographic separation was performed with Diamonsil C18 (4.6×150 mm, 5 μm, Waters, Massachusetts, USA). ABZ-BA and ABZ were detected by ultraviolet (UV) absorbance detection at a wavelength of 240 nm. The mobile phase was methanol /water (70/30 v/v) and the flow rate was 1 mL/min. The injection volume was 20 μL.

protoscolex (PSCs) [5] = assay: Caspase 3 in supernatant of PSC culture medium; format: cell-based, E. multilocularis; settings: 5 days after treatment
protoscolex (PSCs) [6] = assay: Alkaline phosphatase in supernatant of PSC culture medium; format: cell-based, E. multilocularis; settings: 5 days after treatment, same concentration as ABZ / ABZ-SO
[7] = nominal 1.58 (ABZ-BA) / 1.57 (ABZ) ng/mL
[8] = nominal 25.25 (ABZ-BA) / 25.18 (ABZ) ng/mL
[9] = nominal 101 (ABZ-BA) / 100.78 (ABZ) ng/mL
[10] = after 1 month of oral administration

## CCCSc1ccc2nc(NC(=O)OC)[nH]c2c1 [ABZ, Albendazole]
[1]; [7]
  Measured (mean ± SD), 4℃ for 24 h: 1.53 ± 0.08 ng/mL
  Measured (mean ± SD), Room temperature for 24 h: 1.56 ± 0.13 ng/mL
  Measured (mean ± SD), Three freeze: 1.59 ± 0.15 ng/mL
  Measured (mean ± SD), at -80℃ for 15 days: 1.56 ± 0.07 ng/mL
[1]; [8]
  Measured (mean ± SD), 4℃ for 24 h: 25.65 ± 0.53 ng/mL
  Measured (mean ± SD), Room temperature for 24 h: 24.87 ± 0.34 ng/mL
  Measured (mean ± SD), Three freeze: 25.56 ± 0.56 ng/mL
  Measured (mean ± SD), at -80℃ for 15 days: 25.34 ± 1.18 ng/mL
[1]; [9]
  Measured (mean ± SD), 4℃ for 24 h: 104.63 ± 2.81 ng/mL
  Measured (mean ± SD), Room temperature for 24 h: 98.90 ± 3.53 ng/mL
  Measured (mean ± SD), Three freeze: 106.20 ± 1.36 ng/mL
  Measured (mean ± SD), at -80℃ for 15 days: 108.56 ± 1.18 ng/mL
[2]
  oral bioavailability: < 5%
Alveolar echinococcosis
  clinical improvement after administration: two-thirds of AE patients show moderate improvement

## CCCSc1ccc2[nH]c(NC(=O)NCCCCOC(=O)CCC(C)C3CCC4C5C(O)CC6CC(O)CCC6(C)C5CC(O)C34C)nc2c1 (centres unmarked) [ABZ-BA]
[3]; 25 mg/kg/d by gavage, after 4 weeks of administration, n = 6, ultrasound X·Y·Z
  lesion volume: 0.35±0.18 cm^3
[3]; [10]
  effect of ABZ-BA group relative to Albenda: 2.7 fold
  therapeutic effect: significant therapeutic effect
Hep-G2 cell line
  cytotoxicity compared with ABZ: the same cytotoxicity as ABZ
[4]
  equilibrium solubility of ABZ-BA relative to ABZ in vitro: 4 fold
  solubility of ABZ-BA relative to ABZ: about 12 times
Protoscolex (PSCs) [5]
  content of caspase 3 in supernatant of PSC culture medium vs positive control group: significantly higher
Protoscolex (PSCs) [5]; 13.45-53.8 μg/mL
  apoptotic effect on PSCs, dependence on concentration: concentration-dependent
Protoscolex (PSCs) [6]
  ALP in supernatant of PSC culture medium vs positive control group: no significant difference
